Measured values reported in US8772323B2, “Benzoxazole- and tetrahydrobenzoxazole-substituted pyridazinones as GPR119 agonists” (Boehringer Ingelheim International GmbH, priority 2010, dated 2014).

Experiments:
human GPR119 = human GPR119 (Homo sapiens (Human), UniProt Q8TDV5); test: AlphaScreen cAMP assay in Min-6/hGPR119 cells (GPR119 activation, intracellular cAMP); assay type: cell-based; settings: MIN6 cells stably transfected with human GPR119; 45 minutes' incubation at RT; AlphaScreen cAMP Assay Kit
human GPR119, sequence (Q8TDV5 whole entry): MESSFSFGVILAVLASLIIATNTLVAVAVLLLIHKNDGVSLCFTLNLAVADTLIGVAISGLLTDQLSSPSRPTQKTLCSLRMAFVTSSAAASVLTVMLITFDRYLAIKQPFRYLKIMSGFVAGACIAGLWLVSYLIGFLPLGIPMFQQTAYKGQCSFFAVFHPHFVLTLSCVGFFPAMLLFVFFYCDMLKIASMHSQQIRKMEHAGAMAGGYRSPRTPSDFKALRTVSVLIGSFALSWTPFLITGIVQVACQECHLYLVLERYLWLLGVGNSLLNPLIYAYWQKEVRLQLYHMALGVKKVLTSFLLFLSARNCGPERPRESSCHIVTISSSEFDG
How it was run: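 cAMP quantified by AlphaScreen after 45 min room-temperature compound exposure in HEPES/bicarbonate buffer, pH 7.4, containing 0.5 mM IBMX, 0.1% BSA and 1% DMSO final. Cells were Min-6 stably transfected with human GPR119, seeded 24 h beforehand.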

| SMILES | melting point [°C] | EC50 (human GPR119) [nM] |
| --- | --- | --- |
| CC1CC(=O)NN=C1c1ccc2nc(-c3ccc(N4CCOCC4)nc3Cl)oc2c1 (stereo not drawn) [Example 121, 6-[2-(2-chloro-6-morpholin-4-yl-pyridin-3-yl)-benzoxazol-6-yl]-5-methyl-4,5-dihydro-2H-pyridazin-3-one] | 236 | 379 |
| CC1CC(=O)NN=C1c1ccc2nc(-c3ccc(N)nc3)oc2c1 (stereo not drawn) [Example 109, 6-[2-(6-amino-pyridin-3-yl)-benzoxazol-6-yl]-5-methyl-4,5-dihydro-2H-pyridazin-3-one] | 293 | 1410 |
| CC1CC(=O)NN=C1c1ccc2nc(-c3ccco3)oc2c1 (stereo not drawn) [Example 108, 5-methyl-6-(2-furan-2-yl-benzoxazol-6-yl)-4,5-dihydro-2H-pyridazin-3-one] | 209 | 346 |
| CC1CC(=O)NN=C1c1ccc2nc(N3CCNCC3)oc2c1 (stereo not drawn) [Example 117, 5-methyl-6-(2-piperazin-1-yl-benzoxazol-6-yl)-4,5-dihydro-2H-pyridazin-3-one] | 213 | 9390 |
| CC1CC(=O)NN=C1c1ccc2nc(-c3ccc(Cl)nc3Cl)oc2c1 (stereo not drawn) [Example 120, 6-[2-(2,6-dichloro-pyridin-3-yl)-benzoxazol-6-yl]-5-methyl-4,5-dihydro-2H-pyridazin-3-one] | 268 | 1340 |
| CC1CC(=O)NN=C1c1ccc2nc(N3CCSCC3)oc2c1 (stereo not drawn) [Example 113, 5-methyl-6-(2-thiomorpholin-4-yl-benzoxazol-6-yl)-4,5-dihydro-2H-pyridazin-3-one] | 218 | 1900 |
| CC1CC(=O)NN=C1c1ccc2nc(-c3cccs3)oc2c1 (stereo not drawn) [Example 106, 5-methyl-6-(2-thiophen-2-yl-benzoxazol-6-yl)-4,5-dihydro-2H-pyridazin-3-one] | 222 | 120 |
| CCOC(=O)N1CCN(c2nc3ccc(C4=NNC(=O)CC4C)cc3o2)CC1 (stereo not drawn) [Example 114, ethyl 4-[6-(4-methyl-6-oxo-1,4,5,6-tetrahydro-pyridazin-3-yl)-benzoxazol-2-yl]-piperazine-1-carboxylate] | 239 | 2290 |
| CCC[C@@H]1C(=O)NN=C(c2ccc3nc(-c4ccc(OCCN5CCCCC5)cc4)oc3c2)[C@H]1C (stereo in doubt) [Example 173, trans-5-methyl-6-{2-[4-(3-piperidin-1-yl-ethoxy)-phenyl]-benzoxazol-6-yl}-4-propyl-4,5-dihydro-2H-pyridazin-3-one] | – | 218 |
| CCC[C@H]1C(=O)NN=C(c2ccc3nc(-c4ccc(OC(C)C)cc4)oc3c2)[C@@H]1C [Example 260, (4R,5R)-5-methyl-6-{2-[4-(propan-2-yloxy)phenyl]-1,3-benzoxazol-6-yl}-4-propyl-2,3,4,5-tetrahydropyridazin-3-one] | – | 24 |
| CC[C@@H]1CC(=O)NN=C1c1ccc2nc(-c3ccc(OC4CCOCC4)cc3)oc2c1 [Example 195, (R)-5-ethyl-6-{2-[4-(tetrahydro-pyran-4-yloxy)-phenyl]-benzoxazol-6-yl}-4,5-dihydro-2H-pyridazin-3-one] | – | 51 |
| CCC[C@@H]1C(=O)NN=C(c2ccc3nc(-c4ccc(O)cc4)oc3c2)[C@H]1C [Example 203] | – | 962 |
| CCC1CC(=O)NN=C1c1ccc2nc(-c3cccc(OCCN4C(C)(C)CCCC4(C)C)c3)oc2c1 (stereo not drawn) [Example 151, 5-ethyl-6-(2-{3-[2-(2,2,6,6-tetramethyl-piperidin-1-yl)-ethoxy]-phenyl}-benzoxazol-6-yl)-4,5-dihydro-2H-pyridazin-3-one] | – | 116 |
| CC[C@@H]1CC(=O)NN=C1c1ccc2nc(-c3ccc(OC(C)C)cc3)oc2c1 [Example 193, (R)-5-ethyl-6-[2-(4-isopropoxy-phenyl)-benzoxazol-6-yl]-4,5-dihydro-2H-pyridazin-3-one] | – | 30 |
| CC[C@@H]1CC(=O)NN=C1c1ccc2nc(-c3ccc(OCCN(C(C)C)C(C)C)cc3)oc2c1 [Example 259, (R)-6-{2-[4-(2-diisopropylamino-ethoxy)-phenyl]-benzoxazol-6-yl}-5-ethyl-4,5-dihydro-2H-pyridazin-3-one] | – | 22 |
| COC(=O)c1ccc(-c2nc3ccc(C4=NNC(=O)CC4C)cc3o2)cc1 (stereo not drawn) [Example 90, methyl 4-[6-(4-methyl-6-oxo-1,4,5,6-tetrahydro-pyridazin-3-yl)-benzoxazol-2-yl]-benzoate] | – | 763 |
| CCC1CC(=O)NN=C1c1ccc2nc(-c3ccc(OCC4CCN(S(C)(=O)=O)CC4)cc3)oc2c1 (stereo not drawn) [Example 74, 5-ethyl-6-{2-[4-(1-methanesulphonyl-piperidin-4-ylmethoxy)-phenyl]-benzoxazol-6-yl}-4,5-dihydro-2H-pyridazin-3-one] | – | 240 |
| CC[C@H]1CC(=O)NN=C1c1ccc2nc(-c3ccc(OC4CCOCC4)cc3)oc2c1 [Example 194, (S)-5-ethyl-6-{2-[4-(tetrahydro-pyran-4-yloxy)-phenyl]-benzoxazol-6-yl}-4,5-dihydro-2H-pyridazin-3-one] | – | 333 |
| CC1CC(=O)NN=C1c1ccc2nc(-c3ccc(C#N)cc3)oc2c1 (stereo not drawn) [Example 122, 4-[6-(4-methyl-6-oxo-1,4,5,6-tetrahydro-pyridazin-3-yl)-benzoxazol-2-yl]-benzonitrile] | – | 4000 |
| CCC1CC(=O)NN=C1c1ccc2nc(-c3ccc(OCCN4CCC5(CCCCC5)CC4)cc3)oc2c1 (stereo not drawn) [Example 245, 6-(2-{4-[2-(3-aza-spiro[5.5]undec-3-yl)-ethoxy]-phenyl}-benzoxazol-6-yl)-5-ethyl-4,5-dihydro-2H-pyridazin-3-one] | – | 434 |
| CC[C@@H]1C(c2ccc3nc(-c4ccc(OC(C)C)cc4)oc3c2)=NNC(=O)[C@@H]1C (relative stereo) [Example 179, cis-5-ethyl-6-[2-(4-isopropoxy-phenyl)-benzoxazol-6-yl]-4-methyl-4,5-dihydro-2H-pyridazin-3-one] | – | 3840 |
| CCC1CC(=O)NN=C1c1ccc2nc(-c3cccc(OCCN4CCCC4)c3)oc2c1 (stereo not drawn) [Example 201, 5-ethyl-6-{2-[3-(2-pyrrolidin-1-yl-ethoxy)-phenyl]-benzoxazol-6-yl}-4.5-dihydro-2H-pyridazin-3-one] | – | 3030 |
| CCC1CC(=O)NN=C1c1ccc2nc(-c3ccc(OCC(C)(C)N4CCCC4)cc3)oc2c1 (stereo not drawn) [Example 229, 5-ethyl-6-(2-{4-[2-methyl-2-(pyrrolidin-1-yl)propoxy]phenyl}-1,3-benzoxazol-6-yl)-2,3,4,5-tetrahydropyridazin-3-one] | – | 398 |

Now from value to compound:

| melting point [°C] | EC50 (human GPR119) [nM] | SMILES |
| --- | --- | --- |
| – | 299 | CCC[C@H]1C(=O)NN=C(c2ccc3nc(C4CC4)oc3c2)[C@@H]1C (stereo in doubt) [Example 253, 6-(2-cyclopropyl-benzoxazol-6-yl)-5-methyl-4-propyl-4,5-dihydro-2H-pyridazin-3-one] |
| – | 148 | CCC1CC(=O)NN=C1c1ccc2nc(-c3cccc(OCc4ccccc4)c3)oc2c1 (stereo not drawn) [Example 35, 6-[2-(3-benzyloxy-phenyl)-benzoxazol-6-yl]-5-ethyl-4,5-dihydro-2H-pyridazin-3-one] |
| – | 56 | CCC[C@@H]1C(=O)NN=C(c2ccc3nc(-c4ccccc4)oc3c2)[C@H]1C (relative stereo) [Example 128, trans-5-methyl-6-(2-phenyl-benzoxazol-6-yl)-4-propyl-4,5-dihydro-2H-pyridazin-3-one] |
| – | 27 | CC[C@H]1OC(=O)NN=C1N1CCc2nc(-c3ccccc3)oc2C1 [Example 206, (R)-6-ethyl-5-(2-phenyl-6,7-dihydro-4H-oxazolo[5,4-c]pyridin-5-yl)-3,6-dihydro-[1.3.4]oxadiazin-2-one] |
| – | 4160 | O=C1NN=C([C@@H]2CCc3nc(-c4ccccc4)oc3C2)[C@H]2C[C@@H]12 [Example 132, (1R,6S)-5-((R)-2-phenyl-4,5,6,7-tetrahydro-benzoxazol-6-yl)-3,4-diaza-bicyclo[4.1.0]hept-4-en-2-one] |
| – | 82 | CCC1CC(=O)NN=C1c1ccc2nc(-c3ccc(OC4CCCC4)cc3)oc2c1 (stereo not drawn) [Example 176, 6-[2-(4-cyclopentyloxy-phenyl)-benzoxazol-6-yl]-5-ethyl-4,5-dihydro-2H-pyridazin-3-one] |
| – | > 10000 | CCCCC1CC(c2ccc3nc(-c4cccs4)oc3c2)=NNC1=O (stereo not drawn) [Example 140, 4-butyl-6-(2-thiophen-2-yl-benzoxazol-6-yl)-4,5-dihydro-2H-pyridazin-3-one] |
| – | 166 | C[C@@H]1C(=O)NN=C(c2ccc3nc(-c4ccccc4)oc3c2)[C@H]1C [Example 26, (4S,5S)-4,5-dimethyl-6-(2-phenyl-benzoxazol-6-yl)-4,5-dihydro-2H-pyridazin-3-one] |
| – | 50 | CCC1OC(=O)NN=C1N1CCc2nc(-c3ccccc3)oc2C1 (stereo not drawn) [Example 205, 6-ethyl-5-(2-phenyl-6,7-dihydro-4H-oxazolo[5,4-c]pyridin-5-yl)-3,6-dihydro-[1,3,4]oxadiazin-2-one] |
| – | 329 | CCC1CC(=O)NN=C1c1ccc2nc(-c3cccc(O)c3)oc2c1 (stereo not drawn) [Example 39, 6-[2-(3-hydroxy-phenyl)-benzoxazol-6-yl]-5-ethyl-4,5-dihydro-2H-pyridazin-3-one] |
| – | 213 | CO[C@H]1CC(=O)NN=C1c1ccc2nc(-c3ccccc3)oc2c1 [Example 28, (5S)-5-methoxy-6-(2-phenyl-1,3-benzoxazol-6-yl)-2,3,4,5-tetrahydropyridazin-3-one] |
| – | 153 | O=C1NN=C(c2ccc3nc(-c4ccc(F)cc4)oc3c2)C2CC12 (stereo not drawn) [Example 18, 5-[2-(4-fluoro-phenyl)-benzoxazol-6-yl]-3,4-diaza-bicyclo[4.1.0]hept-4-en-2-one] |
| – | 39 | CCC[C@H]1C(=O)NN=C(c2ccc3nc(-c4ccccc4)oc3c2)[C@@H]1C [Example 196, (4R,5R)-5-methyl-6-(2-phenyl-1,3-benzoxazol-6-yl)-4-propyl-2,3,4,5-tetrahydropyridazin-3-one] |
| – | 1630 | O=C1NN=C([C@@H]2CCc3nc(-c4ccccc4)oc3C2)[C@@H]2C[C@H]12 [Example 134, (1S,6R)-5-((R)-2-phenyl-4,5,6,7-tetrahydro-benzoxazol-6-yl)-3,4-diaza-bicyclo[4.1.0]hept-4-en-2-one] |
